# From patent publication US4820695A, “C-20-dihydro-deoxy-(cyclic amino)-derivatives of macrolide antibiotics” (priority 1987, dated 1989)
# Read-outs that look alike come from different tables or passages of the source.
# Experiments:
# [1] = system: Streptococcus pyogenes C203; experiment: ED50 in mice experimentally infected with S. pyogenes C203 (Table XI); format: in vivo; conditions: doses given 1 and 4 hours postinfection
# Procedure: The C-20 modified derivatives of this invention have shown in vivo antimicrobial activity against experimentally-induced infections in laboratory animals. When two doses of test compound were administered to mice experimentally infected with S. pyogenes C203, the activity observed was measured as an ED50 value [effective dose in mg/kg to protect 50% of the test animals: see Warren Wick, et al., J. Bacteriol. 81, 233-235 (1961)].
# ^a mg/kg × 2; doses given 1 and 4 hours postinfection
# Staphyloccus aureus X1.1 = experiment: MIC, standard agar-dilution assay (Table IX); format: cell-based, Staphylococcus aureus; conditions: Staphylococcus aureus, read-out: MIC
# [2] = system: Staphylococcus aureus V41; experiment: MIC, standard agar-dilution assay (Table IX); format: cell-based; conditions: Staphylococcus aureus V41, Penicillin-resistant strain, read-out: MIC
# [3] = system: Staphylococcus aureus X400; experiment: MIC, standard agar-dilution assay (Table IX); format: cell-based; conditions: Staphylococcus aureus X400, Methicillin-resistant strain, read-out: MIC
# [4] = system: Staphylococcus aureus S13E; experiment: MIC, standard agar-dilution assay (Table IX); format: cell-based; conditions: Staphylococcus aureus, S13E
# [5] = system: Staphylococcus epidermidis EPI1; experiment: MIC, standard agar-dilution assay (Table IX); format: cell-based
# [6] = system: Staphylococcus epidermidis 222; experiment: MIC, standard agar-dilution assay (Table IX); format: cell-based; conditions: read-out: MIC
# [7] = system: Streptococcus pyogenes C203; experiment: MIC, standard agar-dilution assay (Table IX); format: cell-based; conditions: read-out: MIC
# [8] = system: Streptococcus pneumoniae Park I; experiment: MIC, standard agar-dilution assay (Table IX); format: cell-based
# [9] = system: Streptococcus Group D X66; experiment: MIC, standard agar-dilution assay (Table IX); format: cell-based; conditions: read-out: MIC
# [10] = system: Streptococcus Group D 2041; experiment: MIC, standard agar-dilution assay (Table IX); format: cell-based; conditions: GROUPD2041, read-out: MIC
# [11] = system: Haemophilus influenzae C.L.; experiment: MIC, standard agar-dilution assay (Table IX); format: cell-based; conditions: Ampicillin-sensitive strain, read-out: MIC
# [12] = system: Haemophilus influenzae 76; experiment: MIC, standard agar-dilution assay (Table IX); format: cell-based; conditions: Haemophilus influenzae 76, Ampicillin-resistant strain, read-out: MIC
# Escherichia coli N10 = experiment: MIC, standard agar-dilution assay (Table IX); format: cell-based; conditions: read-out: MIC
# Escherichia coli EC14 = experiment: MIC, standard agar-dilution assay (Table IX); format: cell-based; conditions: read-out: MIC
# Escherichia coli TEM = experiment: MIC, standard agar-dilution assay (Table IX); format: cell-based; conditions: read-out: MIC
# Klebsiella X26 = experiment: MIC, standard agar-dilution assay (Table IX); format: cell-based; conditions: read-out: MIC
# [13] = system: Mycoplasma gallisepticum 29C; experiment: MIC, broth-dilution microtiter test (Table X); format: cell-based; conditions: Mycoplasmoides gallisepticum, read-out: MIC
# Text: (§1) The MIC's in Table X were obtained using conventional broth-dilution microtiter tests.
# [14] = system: Mycoplasma hyopneumoniae S5972; experiment: MIC, broth-dilution microtiter test (Table X); format: cell-based; conditions: Mesomycoplasma hyopneumoniae, read-out: MIC
# Text: as §1
# Mycoplasma hyorhinis 29E = experiment: MIC, broth-dilution microtiter test (Table X); format: cell-based; conditions: read-out: MIC
# Text: as §1
# Mycoplasma synoviae 40A = experiment: MIC, broth-dilution microtiter test (Table X); format: cell-based; conditions: Mycoplasmopsis synoviae, read-out: MIC
# Text: as §1
# [15] = system: Pasteurella hemolytica 22C; experiment: MIC, broth-dilution microtiter test (Table X); format: cell-based; conditions: read-out: MIC
# Text: as §1
# [16] = system: Pasteurella multocida 17E; experiment: MIC, broth-dilution microtiter test (Table X); format: cell-based; conditions: Bovine isolate, read-out: MIC
# Text: as §1
# [17] = system: Pasteurella multocida 60A; experiment: MIC, broth-dilution microtiter test (Table X); format: cell-based; conditions: Avian isolate, read-out: MIC
# Text: as §1
# Staphylococcus aureus = experiment: MIC, broth-dilution microtiter test (Table X); format: cell-based; conditions: read-out: MIC
# Text: as §1
# Streptococcus sp. 19F = experiment: MIC, broth-dilution microtiter test (Table X); format: cell-based; conditions: read-out: MIC
# Text: as §1
# [18] = Staphylococcus epidermidis EPI1, agar-dilution, read-out: MIC
# [19] = Streptococcus pneumoniae Park I, agar-dilution, read-out: MIC
# [20] = Streptococcus pyogenes, C203, Oral, read-out: ED50
# [21] = Streptococcus pyogenes, C203, sc, Subcutaneous, read-out: ED50
Structure (SMILES),MIC (Staphyloccus aureus X1.1) [µg/mL],MIC [2] [µg/mL],MIC [3] [µg/mL],MIC [4] [µg/mL],"MIC [5, 18] [µg/mL]",MIC [6] [µg/mL],MIC [7] [µg/mL],"MIC [8, 19] [µg/mL]",MIC [9] [µg/mL],MIC [10] [µg/mL],MIC [11] [µg/mL],MIC [12] [µg/mL],MIC (Escherichia coli N10) [µg/mL],MIC (Escherichia coli EC14) [µg/mL],MIC (Escherichia coli TEM) [µg/mL],MIC (Klebsiella X26) [µg/mL],MIC [13] [µg/mL],MIC [14] [µg/mL],MIC (Mycoplasma hyorhinis 29E) [µg/mL],MIC (Mycoplasma synoviae 40A) [µg/mL],further results
CCC1OC(=O)CC(O)C(C)C(OC2OC(C)C(O)C(N(C)C)C2O)C(CCN2CC(C)CC(C)C2)CC(C)C(=O)C=CC(C)=CC1COC1OC(C)C(O)C(OC)C1OC (racemic) [Compound D35],,,,,,,,,,,,,,,,,,,,,ED50 ([1]; Oral): 10.93 mg/kg × 2; ED50 ([1]; Subcutaneous): 0.88 mg/kg × 2
"CCC1OC(=O)CC(O)C(C)C(OC2OC(C)CC(N(C)C)C2O)C(CCN2CCCCCC2)CC(C)C(=O)C=CC(C)=CC1COC1OC(C)C(O)C(OC)C1OC (stereo not drawn) [Compound D5a, 20-DH-DO-20-(Hexahydroazepin-1-yl)-4'-deoxydesmycosin]",0.5,0.5,1,0.5,0.5,0.25,0.25,0.25,2,2,8,8,64,128,8,8,0.78,0.195,3.12,0.195,"MIC [15]: 3.12 µg/mL; MIC [16]: 6.25 µg/mL; MIC [17]: 3.12 µg/mL; MIC (Staphylococcus aureus): 0.39 µg/mL; MIC (Streptococcus sp. 19F): 0.78 µg/mL; ED50 [1, 20]: 34 mg/kg; ED50 [1, 21]: 1.5 mg/kg"
"CCC1OC(=O)CC(O)C(C)C(OC2OC(C)C(O)C(N(C)C)C2O)C(CCN2CCCC(C)(C)C2)CC(C)C(=O)C=CC(C)=CC1COC1OC(C)C(O)C(OC)C1OC (stereo not drawn) [Compound D40, 20-DH-DO-20-(3,3-dimethylpiperidin-1-yl)desmycosin]",0.5,0.5,0.5,0.5,0.5,0.25,0.25,2,4,8,4,8,64,64,16,16,,,,,
"CCC1OC(=O)CC(O)C(C)C(OC2OC(C)C(OC3CC(C)(O)C(O)C(C)O3)C(N(C)C)C2O)C(CCN2CCCCCCC2)CC(C)C(=O)C=CC(C)=CC1COC1OC(C)C(O)C(OC)C1OC (stereo not drawn) [Compound T6, 20-DH-DO-20-(octahydroazocin-1-yl)tylosin]",4,4,8,4,4,2,2,8,> 128,> 128,64,> 128,> 128,> 128,> 128,> 128,3.12,12.5,> 50,0.78,"MIC [15]: 50 µg/mL; MIC [16]: > 50 µg/mL; MIC [17]: > 50 µg/mL; MIC (Staphylococcus aureus): 12.5 µg/mL; MIC (Streptococcus sp. 19F): 50 µg/mL; ED50 [1, 20]: 44 mg/kg; ED50 [1, 21]: > 10 mg/kg"
"CCC1OC(=O)CC(O)C(C)C(OC2OC(C)C(OC3CC(C)(O)C(O)C(C)O3)C(N(C)C)C2O)C(CCN2CC3CCC(CC3)C2)CC(C)C(=O)C=CC(C)=CC1COC1OC(C)C(O)C(OC)C1OC (stereo not drawn) [Compound T13, 20-DH-DO-20-(3-azabicyclo[3.2.2]nonan-3-yl)tylosin]",4,4,8,4,,2,4,,128,> 128,128,128,> 128,> 128,> 128,> 128,1.56,25,> 50,1.56,"MIC ([5]; Staphylococcus epidermidis, EPI1): 4 µg/mL; MIC ([8]; Streptococcus pneumoniae): 16 µg/mL; MIC [15]: 50 µg/mL; MIC [16]: > 50 µg/mL; MIC [17]: > 50 µg/mL; MIC (Staphylococcus aureus): 6.25 µg/mL; MIC (Streptococcus sp. 19F): 50 µg/mL; ED50 [1, 20]: 30 mg/kg; ED50 [1, 21]: > 10 mg/kg"
